From ChEMBL document CHEMBL1201862, “PubChem BioAssay data set” (2004)
Active and inactive are the calls of the source.

Legend:
[1] = biological target: T1, Orexin/Hypocretin receptor type 1 (Homo sapiens, UniProt O43613); assay: (§1) Fluorescence-based cell-based high throughput dose response assay for antagonists of the orexin 1 receptor (OX1R; HCRTR1). [Related pubchem assays (depositor defined):AID434989, AID435008, AID463079, AID485270, AID492963, AID492964, AID492965, AID493232, AID504717, AID504718]; format: functional
T1 sequence (O43613 whole entry): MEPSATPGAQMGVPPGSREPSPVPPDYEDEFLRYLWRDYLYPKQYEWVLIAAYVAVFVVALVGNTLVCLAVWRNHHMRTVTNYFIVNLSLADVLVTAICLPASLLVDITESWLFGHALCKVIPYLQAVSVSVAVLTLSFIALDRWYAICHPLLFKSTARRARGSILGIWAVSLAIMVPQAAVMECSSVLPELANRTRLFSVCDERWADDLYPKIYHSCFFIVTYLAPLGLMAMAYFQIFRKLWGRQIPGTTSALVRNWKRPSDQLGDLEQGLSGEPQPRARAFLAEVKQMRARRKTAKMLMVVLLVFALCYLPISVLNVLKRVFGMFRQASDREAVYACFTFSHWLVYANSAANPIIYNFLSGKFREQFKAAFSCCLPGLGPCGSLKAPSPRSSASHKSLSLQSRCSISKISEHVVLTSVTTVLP

Orexin receptor type 2 [2] = biological target: T2, Orexin receptor type 2 (Homo sapiens, UniProt O43614); assay: Counterscreen assay for antagonists of the orexin 1 receptor (OX1R; HCRTR1): Fluorescence-based cell-based dose response assay for antagonists of the orexin 2 receptor (OX2R; HCRTR2), run by assay provider.; format: functional
T2 sequence (O43614 whole entry): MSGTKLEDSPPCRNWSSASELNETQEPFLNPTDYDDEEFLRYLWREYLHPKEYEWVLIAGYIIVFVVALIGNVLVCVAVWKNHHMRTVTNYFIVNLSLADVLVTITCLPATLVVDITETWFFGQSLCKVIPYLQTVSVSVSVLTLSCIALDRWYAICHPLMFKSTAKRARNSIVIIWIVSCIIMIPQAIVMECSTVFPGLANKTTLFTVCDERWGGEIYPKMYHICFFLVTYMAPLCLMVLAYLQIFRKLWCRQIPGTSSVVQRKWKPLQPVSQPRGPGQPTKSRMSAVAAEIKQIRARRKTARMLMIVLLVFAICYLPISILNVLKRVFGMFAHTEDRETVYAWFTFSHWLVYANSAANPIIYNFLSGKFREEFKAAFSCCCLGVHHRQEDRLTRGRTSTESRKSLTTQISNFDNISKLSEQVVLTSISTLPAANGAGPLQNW

[3] = (§2) Counterscreen for antagonists of the orexin 1 receptor (OX1R; HCRTR1): Fluorescence-based cell-based high throughput dose response assay to identify antagonists of the parental CHO cell line. [Related pubchem assays (depositor defined):AID434989, AID435008, AID463079, AID485270, AID492963, AID492964, AID492965, AID493232, AID504699, AID504701]; format: functional
[4] = biological target: T1, Orexin/Hypocretin receptor type 1; assay: as §1, with “Homogeneous Time Resolved Fluorescence (HTRF)-based” for “Fluorescence-based”; format: functional
CHO-K1 = assay: as §2, with “Homogeneous time resolved fluorescence (HTRF)-based” for “Fluorescence-based”, “cell-based” for “cell-based high throughput”, “CHO-K1” for “CHO”; format: functional; details: Cricetulus griseus
Orexin receptor type 2 [5] = biological target: T2, Orexin receptor type 2; assay: Counterscreen assay for antagonists of the orexin 1 receptor (OX1R; HCRTR1): Homogeneous Time Resolved Fluorescence (HTRF)-based cell-based dose response assay for antagonists of the orexin 2 receptor (OX2R; HCRTR2), run by assay provider.; format: functional
[6] = biological target: T3, Apoptotic protease-activating factor 1 (Homo sapiens, UniProt O14727); assay: SAR analysis of small molecule Activators of Apaf-1 in a Fluorescent assay.; format: functional; details: read-out: EC50_Mean;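 also: caspase-3 cleavage of fluorogenic Rh110 DEVD substrate downstream of apoptosome activation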
T3 sequence (O14727 whole entry): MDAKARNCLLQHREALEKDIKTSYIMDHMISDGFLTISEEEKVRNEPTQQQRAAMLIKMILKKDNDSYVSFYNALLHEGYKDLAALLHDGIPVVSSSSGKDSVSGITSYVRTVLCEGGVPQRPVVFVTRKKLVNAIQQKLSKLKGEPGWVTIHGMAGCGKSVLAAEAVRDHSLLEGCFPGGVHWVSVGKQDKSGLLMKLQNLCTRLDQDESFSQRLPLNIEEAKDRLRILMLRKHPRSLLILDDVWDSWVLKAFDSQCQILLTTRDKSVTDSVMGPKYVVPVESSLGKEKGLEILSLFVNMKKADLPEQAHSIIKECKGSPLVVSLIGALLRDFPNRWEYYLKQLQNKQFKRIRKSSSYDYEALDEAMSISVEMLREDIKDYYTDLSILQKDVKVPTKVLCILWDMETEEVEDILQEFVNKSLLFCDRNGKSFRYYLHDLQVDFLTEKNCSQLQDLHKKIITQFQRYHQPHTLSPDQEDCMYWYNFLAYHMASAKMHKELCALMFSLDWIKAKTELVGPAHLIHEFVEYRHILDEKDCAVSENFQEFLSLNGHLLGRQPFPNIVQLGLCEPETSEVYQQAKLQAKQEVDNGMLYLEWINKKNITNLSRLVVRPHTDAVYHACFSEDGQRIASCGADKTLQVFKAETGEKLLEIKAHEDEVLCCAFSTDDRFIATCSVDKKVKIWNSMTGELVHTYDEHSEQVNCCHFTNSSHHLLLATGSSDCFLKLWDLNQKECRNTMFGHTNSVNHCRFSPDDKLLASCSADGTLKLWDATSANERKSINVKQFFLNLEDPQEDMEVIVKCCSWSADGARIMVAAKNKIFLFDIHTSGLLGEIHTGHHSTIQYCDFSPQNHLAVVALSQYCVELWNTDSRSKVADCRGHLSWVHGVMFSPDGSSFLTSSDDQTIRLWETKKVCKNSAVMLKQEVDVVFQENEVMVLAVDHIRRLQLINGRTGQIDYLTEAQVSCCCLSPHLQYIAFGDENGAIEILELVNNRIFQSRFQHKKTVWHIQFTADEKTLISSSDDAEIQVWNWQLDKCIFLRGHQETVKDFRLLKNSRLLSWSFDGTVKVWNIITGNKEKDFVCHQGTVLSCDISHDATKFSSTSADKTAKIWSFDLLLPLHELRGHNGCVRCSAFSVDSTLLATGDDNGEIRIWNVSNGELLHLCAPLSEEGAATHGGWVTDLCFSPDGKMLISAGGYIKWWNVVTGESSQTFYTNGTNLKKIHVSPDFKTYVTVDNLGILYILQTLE

[7] = biological target: T4, Bifunctional protein GlmU (Mycobacterium tuberculosis, UniProt P9WMN3); assay: Inhibitors of Mycobacterial Glucosamine-1-phosphate acetyl transferase (GlmU). Secondary screen.; design: species or system Mycobacterium tuberculosis H37Rv
T4 sequence (P9WMN3 whole entry): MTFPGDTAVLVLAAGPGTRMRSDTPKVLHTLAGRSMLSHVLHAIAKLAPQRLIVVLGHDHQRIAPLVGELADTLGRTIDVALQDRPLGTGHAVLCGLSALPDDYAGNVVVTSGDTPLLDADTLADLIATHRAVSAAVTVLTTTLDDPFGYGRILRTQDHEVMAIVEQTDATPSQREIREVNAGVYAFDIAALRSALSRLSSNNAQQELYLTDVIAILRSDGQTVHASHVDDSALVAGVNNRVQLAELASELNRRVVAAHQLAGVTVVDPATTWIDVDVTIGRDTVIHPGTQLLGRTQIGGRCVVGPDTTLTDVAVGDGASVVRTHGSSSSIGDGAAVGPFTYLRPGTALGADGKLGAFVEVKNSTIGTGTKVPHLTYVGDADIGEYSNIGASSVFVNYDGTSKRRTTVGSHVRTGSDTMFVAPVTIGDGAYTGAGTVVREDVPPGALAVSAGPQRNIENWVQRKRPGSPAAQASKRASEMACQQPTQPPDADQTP

[8] = biological target: T5, Voltage-gated N-type calcium channel alpha-1B subunit/Amyloid beta A4 precursor protein-binding family A member 1 (Homo sapiens, UniProt Q00975+Q02410); format: protein assay
[9] = biological target: Eukaryotic translation initiation factor 4E (Mus musculus, UniProt P63073); assay: blockers of eIF4G binding by eIF4E – biochemical, TR-FRET, dose response (AID 855); format: functional;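 also: potency for disrupting eIF4E binding to eIF4GI seen as loss of FRET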
[10] = biological target: DNA (cytosine-5)-methyltransferase 1 (Homo sapiens, UniProt P26358); assay: inhibition of DNA methylation by DNMT1 – biochemical, fluorescent molecular beacon, confirmation (AID 602386); format: functional
NS3 = NS3 (Hepatitis C virus, UniProt A3EZJ3); assay: PubChem AID 2173; design: species or system Hepacivirus hominis
[11] = biological target: T5, Voltage-gated N-type calcium channel alpha-1B subunit/Amyloid beta A4 precursor protein-binding family A member 1; format: protein assay; remark: listed apart in the source
ORF 73 = ORF 73 (Human herpesvirus 8, UniProt O40947); assay: KSHV LANA DNA-binding disruption – biochemical, fluorescence polarization, cherry-picked samples, dose response (AID 504725); design: species or system Human gammaherpesvirus 8;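 also: fluorescence polarization of a labeled DNA duplex reporting LANA DNA binding; potency is for inhibitors that block LANA binding to the DNA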
[12] = biological target: Induced myeloid leukemia cell differentiation protein Mcl-1 (Homo sapiens, UniProt Q07820); format: functional

T5 sequence (Q00975 whole entry): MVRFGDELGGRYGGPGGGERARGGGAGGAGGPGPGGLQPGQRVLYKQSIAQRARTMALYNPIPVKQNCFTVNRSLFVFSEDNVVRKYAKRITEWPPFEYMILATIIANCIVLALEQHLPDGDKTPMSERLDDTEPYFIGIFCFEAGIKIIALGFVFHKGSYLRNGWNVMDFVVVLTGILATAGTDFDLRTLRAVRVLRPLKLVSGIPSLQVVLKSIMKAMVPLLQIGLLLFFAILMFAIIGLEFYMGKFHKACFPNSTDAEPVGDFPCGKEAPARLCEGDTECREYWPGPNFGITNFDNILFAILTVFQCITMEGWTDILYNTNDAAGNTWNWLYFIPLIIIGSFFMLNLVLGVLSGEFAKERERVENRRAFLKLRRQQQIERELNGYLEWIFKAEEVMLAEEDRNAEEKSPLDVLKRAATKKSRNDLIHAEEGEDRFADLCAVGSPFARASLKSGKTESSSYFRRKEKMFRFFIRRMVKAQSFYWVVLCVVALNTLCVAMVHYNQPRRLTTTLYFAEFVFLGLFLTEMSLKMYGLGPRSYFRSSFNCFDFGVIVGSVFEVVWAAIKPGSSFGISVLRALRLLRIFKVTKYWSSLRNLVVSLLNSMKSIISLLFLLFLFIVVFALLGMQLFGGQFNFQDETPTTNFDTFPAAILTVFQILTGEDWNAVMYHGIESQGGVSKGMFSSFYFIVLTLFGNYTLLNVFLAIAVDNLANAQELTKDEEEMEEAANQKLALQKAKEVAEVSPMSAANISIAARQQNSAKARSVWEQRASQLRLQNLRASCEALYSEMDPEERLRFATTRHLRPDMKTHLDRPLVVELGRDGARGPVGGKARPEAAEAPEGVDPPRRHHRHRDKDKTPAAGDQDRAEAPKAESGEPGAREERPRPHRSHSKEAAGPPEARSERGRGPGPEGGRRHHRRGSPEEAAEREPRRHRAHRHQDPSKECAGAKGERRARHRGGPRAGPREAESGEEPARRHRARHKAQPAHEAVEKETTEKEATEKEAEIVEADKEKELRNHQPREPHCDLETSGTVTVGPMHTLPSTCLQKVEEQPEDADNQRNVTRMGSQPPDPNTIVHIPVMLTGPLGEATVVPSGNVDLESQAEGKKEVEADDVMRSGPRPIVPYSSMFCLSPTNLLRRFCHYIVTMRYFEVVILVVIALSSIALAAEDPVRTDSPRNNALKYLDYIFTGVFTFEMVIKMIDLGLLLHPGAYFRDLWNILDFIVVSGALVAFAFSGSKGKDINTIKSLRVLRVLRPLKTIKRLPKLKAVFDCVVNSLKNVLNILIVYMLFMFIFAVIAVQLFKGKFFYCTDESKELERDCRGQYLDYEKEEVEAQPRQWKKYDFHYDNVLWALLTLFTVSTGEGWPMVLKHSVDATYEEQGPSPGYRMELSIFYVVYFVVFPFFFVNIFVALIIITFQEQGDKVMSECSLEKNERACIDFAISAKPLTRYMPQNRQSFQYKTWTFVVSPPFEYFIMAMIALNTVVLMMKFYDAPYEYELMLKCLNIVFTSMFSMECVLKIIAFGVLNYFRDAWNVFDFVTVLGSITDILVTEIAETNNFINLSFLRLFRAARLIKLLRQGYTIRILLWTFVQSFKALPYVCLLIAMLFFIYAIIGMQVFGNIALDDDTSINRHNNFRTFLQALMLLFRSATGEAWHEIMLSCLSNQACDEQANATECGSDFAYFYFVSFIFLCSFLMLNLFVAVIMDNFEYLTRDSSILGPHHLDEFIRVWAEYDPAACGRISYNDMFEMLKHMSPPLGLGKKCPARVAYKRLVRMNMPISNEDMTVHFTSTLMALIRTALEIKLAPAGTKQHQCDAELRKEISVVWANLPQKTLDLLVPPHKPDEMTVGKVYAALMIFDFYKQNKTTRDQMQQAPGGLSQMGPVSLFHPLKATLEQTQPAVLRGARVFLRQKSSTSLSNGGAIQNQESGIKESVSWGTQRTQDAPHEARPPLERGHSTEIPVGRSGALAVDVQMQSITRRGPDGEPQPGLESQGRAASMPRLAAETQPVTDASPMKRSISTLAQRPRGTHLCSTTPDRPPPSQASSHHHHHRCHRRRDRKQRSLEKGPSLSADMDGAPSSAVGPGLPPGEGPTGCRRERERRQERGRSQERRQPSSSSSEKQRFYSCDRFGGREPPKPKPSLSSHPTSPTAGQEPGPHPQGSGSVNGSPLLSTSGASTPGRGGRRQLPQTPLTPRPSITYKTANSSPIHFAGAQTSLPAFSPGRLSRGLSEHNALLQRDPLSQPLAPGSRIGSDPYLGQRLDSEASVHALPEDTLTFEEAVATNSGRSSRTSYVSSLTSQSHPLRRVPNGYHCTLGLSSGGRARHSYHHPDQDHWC
T5 sequence (Q02410 whole entry): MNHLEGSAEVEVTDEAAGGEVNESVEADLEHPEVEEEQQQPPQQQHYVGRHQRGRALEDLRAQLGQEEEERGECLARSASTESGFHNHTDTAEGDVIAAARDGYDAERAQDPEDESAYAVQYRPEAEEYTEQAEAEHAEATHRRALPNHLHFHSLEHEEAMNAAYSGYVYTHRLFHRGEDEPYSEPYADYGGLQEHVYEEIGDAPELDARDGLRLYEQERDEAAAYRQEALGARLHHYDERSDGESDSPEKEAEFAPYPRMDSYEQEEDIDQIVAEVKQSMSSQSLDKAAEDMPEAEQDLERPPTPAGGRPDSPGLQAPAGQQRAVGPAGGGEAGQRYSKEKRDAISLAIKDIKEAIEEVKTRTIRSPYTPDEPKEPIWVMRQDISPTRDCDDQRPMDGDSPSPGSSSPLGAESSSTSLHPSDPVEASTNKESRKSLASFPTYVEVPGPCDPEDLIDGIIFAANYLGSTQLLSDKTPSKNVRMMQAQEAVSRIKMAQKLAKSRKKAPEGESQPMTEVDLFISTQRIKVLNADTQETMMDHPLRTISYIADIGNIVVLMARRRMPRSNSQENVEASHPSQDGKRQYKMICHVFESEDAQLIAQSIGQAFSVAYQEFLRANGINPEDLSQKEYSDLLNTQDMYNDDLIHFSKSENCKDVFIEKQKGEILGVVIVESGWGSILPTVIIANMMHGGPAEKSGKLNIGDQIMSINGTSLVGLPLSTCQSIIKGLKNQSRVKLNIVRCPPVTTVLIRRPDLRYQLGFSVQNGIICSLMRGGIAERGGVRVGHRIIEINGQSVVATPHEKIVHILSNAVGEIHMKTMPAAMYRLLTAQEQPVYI
Sequence of ORF 73 (O40947 whole entry): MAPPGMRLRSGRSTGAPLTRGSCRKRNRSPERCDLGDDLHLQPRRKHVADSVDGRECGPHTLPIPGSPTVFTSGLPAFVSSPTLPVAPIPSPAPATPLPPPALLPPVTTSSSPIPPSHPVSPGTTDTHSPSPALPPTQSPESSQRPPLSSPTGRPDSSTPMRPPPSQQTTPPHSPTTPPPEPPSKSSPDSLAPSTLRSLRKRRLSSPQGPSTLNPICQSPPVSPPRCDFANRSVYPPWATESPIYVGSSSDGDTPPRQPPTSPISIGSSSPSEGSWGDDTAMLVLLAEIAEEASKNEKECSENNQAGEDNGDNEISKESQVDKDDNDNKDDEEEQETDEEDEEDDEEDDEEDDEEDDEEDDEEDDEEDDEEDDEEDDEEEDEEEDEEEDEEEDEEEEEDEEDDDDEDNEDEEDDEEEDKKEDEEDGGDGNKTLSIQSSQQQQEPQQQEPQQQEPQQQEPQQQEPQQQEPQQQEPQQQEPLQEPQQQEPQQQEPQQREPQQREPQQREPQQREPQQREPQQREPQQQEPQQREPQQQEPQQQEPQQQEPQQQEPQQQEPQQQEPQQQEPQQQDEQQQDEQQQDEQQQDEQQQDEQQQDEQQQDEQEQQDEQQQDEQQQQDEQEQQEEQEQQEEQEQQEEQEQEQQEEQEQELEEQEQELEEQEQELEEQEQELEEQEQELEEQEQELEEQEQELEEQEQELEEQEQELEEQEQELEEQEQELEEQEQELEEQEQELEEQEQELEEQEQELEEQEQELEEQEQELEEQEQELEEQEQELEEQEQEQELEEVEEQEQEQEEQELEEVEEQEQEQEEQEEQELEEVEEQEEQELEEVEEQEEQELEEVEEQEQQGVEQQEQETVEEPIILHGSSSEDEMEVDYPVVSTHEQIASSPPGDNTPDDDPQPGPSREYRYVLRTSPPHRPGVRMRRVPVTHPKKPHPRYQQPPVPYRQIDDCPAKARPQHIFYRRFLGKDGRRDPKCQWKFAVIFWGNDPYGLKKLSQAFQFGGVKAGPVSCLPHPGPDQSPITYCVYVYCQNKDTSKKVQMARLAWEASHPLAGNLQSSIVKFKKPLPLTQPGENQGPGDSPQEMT
Sequence of Eukaryotic translation initiation factor 4E (P63073 whole entry): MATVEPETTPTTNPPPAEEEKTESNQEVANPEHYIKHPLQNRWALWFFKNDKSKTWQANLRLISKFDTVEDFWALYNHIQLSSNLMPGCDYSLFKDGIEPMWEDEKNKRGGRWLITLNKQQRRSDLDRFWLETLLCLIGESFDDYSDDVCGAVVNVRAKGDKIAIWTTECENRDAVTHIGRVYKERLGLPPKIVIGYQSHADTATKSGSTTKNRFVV
Sequence of NS3 (A3EZJ3 whole entry): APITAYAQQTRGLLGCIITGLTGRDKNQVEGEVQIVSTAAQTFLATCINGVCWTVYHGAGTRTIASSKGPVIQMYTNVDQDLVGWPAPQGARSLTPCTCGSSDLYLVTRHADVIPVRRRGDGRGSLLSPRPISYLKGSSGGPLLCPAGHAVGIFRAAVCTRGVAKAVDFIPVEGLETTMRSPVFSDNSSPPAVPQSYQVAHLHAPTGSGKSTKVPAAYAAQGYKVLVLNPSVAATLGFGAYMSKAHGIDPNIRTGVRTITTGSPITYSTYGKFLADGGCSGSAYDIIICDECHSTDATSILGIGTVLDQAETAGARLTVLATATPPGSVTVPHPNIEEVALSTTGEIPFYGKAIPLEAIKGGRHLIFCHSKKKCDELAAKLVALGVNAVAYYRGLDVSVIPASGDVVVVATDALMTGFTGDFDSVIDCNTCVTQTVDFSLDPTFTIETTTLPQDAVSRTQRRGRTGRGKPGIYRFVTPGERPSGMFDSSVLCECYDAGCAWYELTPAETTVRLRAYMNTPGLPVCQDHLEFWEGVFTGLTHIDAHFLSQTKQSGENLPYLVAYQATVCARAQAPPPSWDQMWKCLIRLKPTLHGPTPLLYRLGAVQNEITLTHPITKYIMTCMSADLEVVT

## O=C(Nc1cccc(S(=O)(=O)NCc2ccco2)c1)c1cc(-c2ccccc2)nc2ccccc12
[1]
  IC50: > 5.53 µM (active)
Orexin receptor type 2 [2]
  IC50: 16.9 µM (inactive)
[3]
  IC50: > 49.7 µM (inactive)
[4]
  IC50: 2.98 µM (active)
CHO-K1
  IC50: > 66.2 µM (inactive)
Orexin receptor type 2 [5]
  IC50: > 50 µM (inactive)

## COC(=O)c1coc(-c2ccc(F)cc2)n1
[6]
  EC50: > 100 µM (inactive)

## O=C(O)c1ccc(-n2cccc2/C=C2/NC(=O)N(c3cccc(Cl)c3)C2=O)cc1
[7]
  IC50: 66.8 µM (active)
[8]
  IC50: 48.1 µM (active)
[9]
  IC50: 50 µM (inactive)
[10]
  IC50: 4.62 µM (active)
NS3
  IC50: 6.07 µM (active)
[11]
  IC50: 3.28 µM (active)
ORF 73
  AC50: 86.8 µM (active)
[12]
  IC50: 6.34 µM (active)

## O=C(c1ccc(S(=O)(=O)Nc2ccc(F)cc2)cc1)N1CCN(c2ccccn2)CC1
[1]
  IC50: 7.1 µM (active)
Orexin receptor type 2 [2]
  IC50: 15.6 µM (inactive)
[3]
  IC50: 14.7 µM (inactive)
[4]
  IC50: 4.45 µM (active)
CHO-K1
  IC50: > 66.2 µM (inactive)
Orexin receptor type 2 [5]
  IC50: > 50 µM (inactive)
